Molecular target: T1, human F508del CFTR (Homo sapiens, UniProt P13569, DEL508-508)
T1 construct: expressed in transfected cells; host or cells: Fisher Rat Thyroid (FRT) cells
Test: CFTR-YFP High Throughput Assay
Format: cell-based
Settings: FRT cells expressing human F508del CFTR and YFP; for Emax: EMax normalized to the positive control, read-out: % Efficacy
Summary of the method: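 FRT cells stably co-expressing human F508del CFTR and halide-sensitive YFP-H148Q/I152L; for correction, compound (2 nM-40 μM) incubated 24-26 h at 37° C, washed, then stimulated 60-120 min at RT with 20 μM forskolin plus 30 μM potentiator P3. Iodide-induced YFP quench (Ex 500/Em 540 nm) recorded; quench rates least-squares fitted.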

T1 sequence (P13569 with tags, fused parts or gaps DEL508-508): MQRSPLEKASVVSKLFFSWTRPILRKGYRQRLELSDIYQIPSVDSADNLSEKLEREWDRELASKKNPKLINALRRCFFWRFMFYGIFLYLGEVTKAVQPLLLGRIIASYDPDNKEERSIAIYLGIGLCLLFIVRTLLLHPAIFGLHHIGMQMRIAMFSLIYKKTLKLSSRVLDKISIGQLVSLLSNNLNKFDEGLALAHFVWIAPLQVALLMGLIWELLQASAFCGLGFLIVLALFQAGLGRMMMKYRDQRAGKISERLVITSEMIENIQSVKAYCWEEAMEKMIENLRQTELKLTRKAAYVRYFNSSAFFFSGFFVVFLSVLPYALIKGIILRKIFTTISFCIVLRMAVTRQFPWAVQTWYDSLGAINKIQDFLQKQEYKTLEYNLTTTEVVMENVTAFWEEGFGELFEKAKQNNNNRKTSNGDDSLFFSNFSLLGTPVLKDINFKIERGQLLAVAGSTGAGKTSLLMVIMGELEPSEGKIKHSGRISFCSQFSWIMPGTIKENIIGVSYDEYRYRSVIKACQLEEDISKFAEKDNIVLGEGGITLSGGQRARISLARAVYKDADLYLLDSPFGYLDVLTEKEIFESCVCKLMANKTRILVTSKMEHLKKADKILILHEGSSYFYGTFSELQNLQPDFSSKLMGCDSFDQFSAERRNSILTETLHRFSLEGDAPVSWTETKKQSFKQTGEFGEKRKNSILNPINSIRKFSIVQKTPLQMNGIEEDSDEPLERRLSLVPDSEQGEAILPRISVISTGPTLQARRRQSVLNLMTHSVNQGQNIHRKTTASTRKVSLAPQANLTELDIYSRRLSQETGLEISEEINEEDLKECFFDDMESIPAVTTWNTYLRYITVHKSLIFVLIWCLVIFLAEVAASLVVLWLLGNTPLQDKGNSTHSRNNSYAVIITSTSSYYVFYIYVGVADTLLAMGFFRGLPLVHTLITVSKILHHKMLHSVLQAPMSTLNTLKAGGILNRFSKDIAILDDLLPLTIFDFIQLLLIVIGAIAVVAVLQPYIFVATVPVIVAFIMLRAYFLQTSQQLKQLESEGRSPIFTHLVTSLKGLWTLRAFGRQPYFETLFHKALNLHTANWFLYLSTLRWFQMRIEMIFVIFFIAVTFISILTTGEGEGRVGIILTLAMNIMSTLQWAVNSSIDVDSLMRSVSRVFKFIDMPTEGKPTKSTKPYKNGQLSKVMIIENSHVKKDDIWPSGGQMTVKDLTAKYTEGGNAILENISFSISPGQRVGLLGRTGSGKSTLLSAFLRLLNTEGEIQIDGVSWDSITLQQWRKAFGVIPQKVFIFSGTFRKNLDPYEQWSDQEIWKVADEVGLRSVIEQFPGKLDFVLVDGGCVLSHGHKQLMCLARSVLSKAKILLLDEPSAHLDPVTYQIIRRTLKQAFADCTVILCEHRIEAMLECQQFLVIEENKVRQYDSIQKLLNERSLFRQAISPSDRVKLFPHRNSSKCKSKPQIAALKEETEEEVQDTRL

Structure (SMILES)	Emax	EC50
CCN(C(=O)Cn1nc(C(=O)Nc2ccccc2C#N)c2ccccc2c1=O)c1ccc2c(c1)OC(F)(F)O2 [Example 124, N-(2-cyanophenyl)-3-(2-((2,2-difluorobenzo[d][1, 3]dioxol-5-yl)(ethyl)amino)-2-oxoethyl)-4-oxo-3,4-dihydrophthalazine-1-carboxamide]	30 to 80%	
CCN(C(=O)c1nn(-c2ccc(C)cc2)c(=O)c2c1c1ccccc1n2C(C)C)c1ccccc1 [Example 225, N-ethyl-5-isopropyl-4-oxo-N-phenyl-3-(p-tolyl)-4,5-dihydro-3H-pyridazino[4,5-b]indole-1-carboxamide]	30 to 80%	
CCc1ccc(N(CC)C(=O)Cn2nc(-c3cccc(N)c3)c3ccccc3c2=O)cc1 [Example 8, 2-(4-(3-aminophenyl)-1-oxophthalazin-2(1H)-yl)-N-ethyl-N-(4-ethylphenyl)acetamide]	30 to 80%	< 10 µM
CCc1ccc(N(CC)C(=O)Cn2nc(-c3cccnc3)c3ccccc3c2=O)cc1 [Example 3, N-ethyl-N-(4-ethylphenyl)-2-(1-oxo-4-(pyridin-3-yl)phthalazin-2(1H)-yl)acetamide]	30 to 80%	
CCN(C(=O)c1nn(-c2ccccc2F)c(=O)c2c1c1ccccc1n2C)c1ccccc1 [Example 174, N-ethyl-3-(2-fluorophenyl)-5-methyl-4-oxo-N-phenyl-4,5-dihydro-3H-pyridazino[4,5-b]indole-1-carboxamide]	30 to 80%	
CCN(C(=O)Cn1nc(Cc2cccnc2)c2c(OCCOC)cccc2c1=O)c1ccc2c(c1)OC(F)(F)O2 [Example 62, N-(2,2-difluorobenzo[d][1,3]dioxol-5-yl)-N-ethyl-2-(5-(2-methoxyethoxy)-1-oxo-4-(pyridin-3-ylmethyl)phthalazin-2(1H)-yl)acetamide]	30 to 80%	
Cc1ccc(-n2nc(-c3ccccc3)c3c4ccccc4n(C)c3c2=O)cc1 [Example 236, 5-methyl-1-phenyl-3-(p-tolyl)-3H-pyridazino[4,5-b]indol-4(5H)-one]	10 to 30%	> 20 µM
CCN(C(=O)c1nn(-c2ccc(C(F)(F)F)cn2)c(=O)c2c1c1ccccc1n2C)c1ccccc1 [Example 193, N-ethyl-5-methyl-4-oxo-N-phenyl-3-(5-(trifluoromethyl)pyridin-2-yl)-4,5-dihydro-3H-pyridazino[4,5-b]indole-1-carboxamide]	30 to 80%	< 10 µM
COc1ccc(N(C)C(=O)Cn2nc(Cc3cccnc3)c3ccccc3c2=O)cc1 [Example 27, N-(4-methoxyphenyl)-N-methyl-2-(1-oxo-4-(pyridin-3-ylmethyl)phthalazin-2(1H)-yl)acetamide]	30 to 80%	
CC(C)N(C(=O)c1nn(-c2ccccc2)c(=O)c2c1c1ccccc1n2C)c1ccc(Cl)cc1 [Example 190, N-(4-chlorophenyl)-N-isopropyl-5-methyl-4-oxo-3-phenyl-4,5-dihydro-3H-pyridazino[4,5-b]indole-1-carboxamide]	30 to 80%	< 10 µM
CCc1ccc(N(CC)C(=O)Cn2nc(C(=O)Nc3cc(Cl)ccc3C(=O)OC)c3ccccc3c2=O)cc1 [Example 130, methyl 4-chloro-2-(3-(2-(ethyl(4-ethylphenyl)amino)-2-oxoethyl)-4-oxo-3,4-dihydrophthalazine-1-carboxamido)benzoate]	30 to 80%	
CCN(C(=O)c1nn(-c2ccc(C)cc2)c(=O)c2c1c1c(OC)cccc1n2C)c1ccccc1 [Example 195, N-ethyl-9-methoxy-5-methyl-4-oxo-N-phenyl-3-(p-tolyl)-4,5-dihydro-3H-pyridazino[4,5-b]indole-1-carboxamide]	30 to 80%	< 10 µM
Cc1ccc(-n2nc(C(=O)N(c3ccccc3)C3CC3)c3c4ccccc4n(C)c3c2=O)cc1 [Example 153, N-cyclopropyl-5-methyl-4-oxo-N-phenyl-3-(p-tolyl)-4,5-dihydro-3H-pyridazino[4,5-b]indole-1-carboxamide]	30 to 80%	
CCN(CC)C(=O)c1nn(CC(O)COCc2ccccc2)c(=O)c2c1c1c(C)cccc1n2C (stereo not shown) [Example 232, 3-(3-(benzyloxy)-2-hydroxypropyl)-N,N-diethyl-5,9-dimethyl-4-oxo-4,5-dihydro-3H-pyridazino[4,5-b]indole-1-carboxamide]	30 to 80%	< 10 µM
CCOC(=O)c1ccc2c(=O)n(CC(=O)N(C)c3ccc4nc(C)oc4c3)nc(-c3cccc(Cl)c3)c2c1 [Example 66, ethyl 1-(3-chlorophenyl)-3-(2-(methyl(2-methylbenzo[d]oxazol-6-yl)amino)-2-oxoethyl)-4-oxo-3,4-dihydrophthalazine-7-carboxylate]	> 80%	< 10 µM
CCN(C(=O)c1nn(CC(C)(C)C)c(=O)c2c1c1ccccc1n2C)c1ccccc1 [Example 217, N-ethyl-5-methyl-3-neopentyl-4-oxo-N-phenyl-4,5-dihydro-3H-pyridazino[4,5-b]indole-1-carboxamide]	10 to 30%	> 20 µM

Structure (SMILES)	Emax	EC50
CCc1ccc(N(CC)C(=O)Cn2nc(-c3cccc4ncccc34)c3ccccc3c2=O)cc1 [Example 5, N-ethyl-N-(4-ethylphenyl)-2-(1-oxo-4-(quinolin-5-yl)phthalazin-2(1H)-yl)acetamide]	30 to 80%	
COc1ccc2c(-c3cccc(C#N)c3)nn(CC(=O)C3(c4ccc5c(c4)OC(F)(F)O5)CC3)c(=O)c2c1 [Example 252, 3-(3-(2-(1-(2,2-difluorobenzo[d][1,3]dioxol-5-yl)cyclopropyl)-2-oxoethyl)-6-methoxy-4-oxo-3,4-dihydrophthalazin-1-yl)benzonitrile]	> 80%	< 10 µM
CCc1ccc(N(CC)C(=O)Cn2nc(Cc3cccnc3)c3cc(Cl)c(Cl)cc3c2=O)cc1 [Example 38, 2-(6,7-dichloro-1-oxo-4-(pyridin-3-ylmethyl)phthalazin-2(1H)-yl)-N-ethyl-N-(4-ethylphenyl)acetamide]	30 to 80%	< 10 µM
CCN(C(=O)c1nn(-c2ccccc2)c(=O)c2c1c1ccccc1n2C)c1ncccn1 [Example 162, N-ethyl-5-methyl-4-oxo-3-phenyl-N-(pyrimidin-2-yl)-4,5-dihydro-3H-pyridazino[4,5-b]indole-1-carboxamide]	30 to 80%	
CCN(C(=O)Cn1nc(Cc2cccnc2)c2cc(Cl)ccc2c1=O)c1ccc2c(c1)OC(F)(F)O2 [Example 53, 2-(6-chloro-1-oxo-4-(pyridin-3-ylmethyl)phthalazin-2(1H)-yl)-N-(2,2-difluorobenzo[d][1,3]dioxol-5-yl)-N-ethylacetamide]	30 to 80%	
CCc1ccc(N(CC)C(=O)Cn2nc(C(=O)Nc3cc(Cl)ccc3C#N)c3ccccc3c2=O)cc1 [Example 128, N-(5-chloro-2-cyanophenyl)-3-(2-(ethyl(4-ethylphenyl)amino)-2-oxoethyl)-4-oxo-3,4-dihydrophthalazine-1-carboxamide]	30 to 80%	10 to 20 µM
CCN(C(=O)c1nn(CC(=O)N2CCOCC2)c(=O)c2c1c1ccccc1n2C)c1ccccc1 [Example 215, N-ethyl-5-methyl-3-(2-morpholino-2-oxoethyl)-4-oxo-N-phenyl-4,5-dihydro-3H-pyridazino[4,5-b]indole-1-carboxamide]	30 to 80%	< 10 µM
CCN(C(=O)Cn1ncc2c(c1=O)c1ccccc1n2CC#N)c1ccc2c(c1)OC(F)(F)O2 [Example 139, 2-(5-(cyanomethyl)-1-oxo-1H-pyridazino[4,5-b]indol-2(5H)-yl)-N-(2,2-difluorobenzo[d][1,3]dioxol-5-yl)-N-ethylacetamide]	30 to 80%	10 to 20 µM
CCN(C(=O)Cn1nc(C(=O)N(C)c2ccccn2)c2ccccc2c1=O)c1ccc2c(c1)OC(F)(F)O2 [Example 127, 3-(2-((2,2-difluorobenzo[d][1,3]dioxol-5-yl)(ethyl)amino)-2-oxoethyl)-N-methyl-4-oxo-N-(pyridin-2-yl)-3,4-dihydrophthalazine-1-carboxamide]	30 to 80%	< 10 µM
CCN(C(=O)c1nn(-c2nc3ccccc3n2C)c(=O)c2c1c1ccccc1n2C)c1ccccc1 [Example 173, N-ethyl-5-methyl-3-(1-methyl-1H-benzo[d]imidazol-2-yl)-4-oxo-N-phenyl-4,5-dihydro-3H-pyridazino[4,5-b]indole-1-carboxamide]	10 to 30%	
CCc1ccc(N(CC)C(=O)Cn2nc(-c3cccc4cnccc34)c3ccccc3c2=O)cc1 [Example 6, N-ethyl-N-(4-ethylphenyl)-2-(4-(isoquinolin-5-yl)-1-oxophthalazin-2(1H)-yl)acetamide]	30 to 80%	
CCN(C(=O)c1nn(-c2ccc(C)cc2)c(=O)c2c1c1c(C)cccc1n2C)c1ccccc1 [Example 196, N-ethyl-5,9-dimethyl-4-oxo-N-phenyl-3-(p-tolyl)-4,5-dihydro-3H-pyridazino[4,5-b]indole-1-carboxamide]	> 80%	> 20 µM
CCN(C(=O)Cn1nc(Cc2cccnc2)c2cccc(OC3CCCCC3)c2c1=O)c1ccc2c(c1)OC(F)(F)O2 [Example 59, 2-(8-(cyclohexyloxy)-1-oxo-4-(pyridin-3-ylmethyl)phthalazin-2(1H)-yl)-N-(2,2-difluorobenzo[d][1,3]dioxol-5-yl)-N-ethylacetamide]	30 to 80%	10 to 20 µM
CCN(C(=O)c1nn(-c2ccc(C)cc2)c(=O)c2c1c1cc(OC)ccc1n2C)c1ccccc1 [Example 187, N-ethyl-8-methoxy-5-methyl-4-oxo-N-phenyl-3-(p-tolyl)-4,5-dihydro-3H-pyridazino[4,5-b]indole-1-carboxamide]	30 to 80%	> 20 µM
CCN(C(=O)Cn1nc(C(=O)Nc2ccccn2)c2ccccc2c1=O)c1ccc2c(c1)OC(F)(F)O2 [Example 126, 3-(2-((2,2-difluorobenzo[d][1,3]dioxol-5-yl)(ethyl)amino)-2-oxoethyl)-4-oxo-N-(pyridin-2-yl)-3,4-dihydrophthalazine-1-carboxamide]	30 to 80%	< 10 µM
